Measurements: patent publication US20250026748A1, “N-(5-SUBSTITUTED-[(1,3,4-THIADIAZOLYL) OR (THIAZOLYL)])(SUBSTITUTED)CARBOXAMIDE COMPOUNDS AND USE THEREOF FOR INHIBITING HUMAN POLYMERASE THETA” (Repare Therapeutics Inc., priority 2021, published 2025)

These compounds were tested against PolQ ATPase enzyme (1-894) (Homo sapiens (Human), UniProt O75417) (assay: Polθ ATPase enzymatic assay (0.5 nM enzyme concentration), ADP-Glo). Details: average IC50; 0.5 nM PolQ ATPase enzyme (1-894).
PolQ ATPase enzyme (1-894), sequence (O75417 1-894): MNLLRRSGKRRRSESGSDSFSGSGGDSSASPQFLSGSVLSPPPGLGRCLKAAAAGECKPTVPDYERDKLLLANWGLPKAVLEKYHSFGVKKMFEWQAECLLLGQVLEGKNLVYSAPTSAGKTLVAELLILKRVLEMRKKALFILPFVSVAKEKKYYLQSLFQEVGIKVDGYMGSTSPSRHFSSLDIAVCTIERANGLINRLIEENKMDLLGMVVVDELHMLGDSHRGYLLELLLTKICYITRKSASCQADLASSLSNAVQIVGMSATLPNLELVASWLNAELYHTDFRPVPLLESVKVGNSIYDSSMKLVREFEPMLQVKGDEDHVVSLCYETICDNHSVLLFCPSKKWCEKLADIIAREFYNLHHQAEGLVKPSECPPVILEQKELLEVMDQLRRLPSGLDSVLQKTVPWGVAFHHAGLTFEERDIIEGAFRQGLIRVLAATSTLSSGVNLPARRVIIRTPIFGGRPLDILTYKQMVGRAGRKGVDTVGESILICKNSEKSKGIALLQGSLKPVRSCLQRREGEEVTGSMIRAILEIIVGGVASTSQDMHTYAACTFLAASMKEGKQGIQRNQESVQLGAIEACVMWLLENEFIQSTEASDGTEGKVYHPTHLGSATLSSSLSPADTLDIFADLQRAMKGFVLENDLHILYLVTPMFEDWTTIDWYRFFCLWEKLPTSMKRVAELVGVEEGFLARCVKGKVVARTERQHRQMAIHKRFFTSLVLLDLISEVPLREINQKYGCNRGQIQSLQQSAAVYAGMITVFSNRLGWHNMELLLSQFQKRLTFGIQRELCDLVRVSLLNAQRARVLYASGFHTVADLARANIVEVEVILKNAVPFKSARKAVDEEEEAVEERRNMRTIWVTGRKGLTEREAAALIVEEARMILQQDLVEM
Type: biochemical
Outline: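 Enzyme (0.5 nM) pre-incubated 15 min at rt with 10-point inhibitor series in 50 mM Tris pH 7.5, 10% glycerol, 5 mM DTT, 10 mM MgCl2, 0.1 mg/ml BSA; reaction started with 20 nM fork DNA and 100 μM ATP, run 180 min at rt. ADP-Glo luminescence; IC50 from 4-parameter variable-slope fit.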
`COc1cnc(C(F)F)cc1-c1cc(C)ncc1C(=O)Nc1nnc(C#CC2CC2)s1` [Compound 278] showed an IC50 of under 0.25 nM.
With `COc1cnc(Cl)cc1-c1cn2c(C#N)cnc2cc1C(=O)Nc1nnc(C#CC2CC2)s1` [Compound 341] the IC50 was 3.2 nM.
In the case of `COc1cnc(C(F)F)cc1-c1cc(N(C)C(=O)C2CC2)ccc1C(=O)Nc1nnc(C#CC2CC2)s1` [Compound 222], the IC50 is reported as under 0.25 nM.
Compound `COc1cnc(C(F)F)cc1-c1cc(N2CCC(C)(C)CC2=O)ncc1C(=O)Nc1nnc(C#CC2CC2)s1` [Compound 353] has an IC50 of 0.49 nM.
Compound `COc1cnc(C(F)F)cc1-c1cc(CC#N)ccc1C(=O)Nc1nnc(C#CC2CC2)s1` [Compound 112, 4-(cyanomethyl)-N-(5-(cyclopropylethynyl)-1,3,4-thiadiazol-2-yl)-2-(2-(difluoromethyl)-5-methoxypyridin-4-yl)benzamide] has an IC50 of under 0.25 nM.
`COc1cnc(C(F)F)cc1-c1cc(OCCOC(F)F)ncc1C(=O)Nc1nnc(C#CC2CC2)s1` [Compound 181] gave an IC50 of 0.75 nM.
Work on `COc1cnc(Cl)nc1-c1cc(CC#N)ccc1C(=O)Nc1nnc(C#CC2CC2)s1` [Compound 407] yielded an IC50 of under 0.25 nM.
`COc1ccc(C(F)(F)F)cc1-c1cc(N2CCCC2=O)ncc1C(=O)Nc1nnc(C#CC2CC2)s1` [Compound 290] showed an IC50 of 7.3 nM.
In the case of `COc1cnc(C(F)F)cc1-c1cc(-c2cn(C)c(C)n2)ccc1C(=O)Nc1nnc(C#CC2CC2)s1` [Compound 412], the IC50 is reported as 0.25 nM.
Work on `COc1cnc(C(F)F)cc1-c1cc(C#CCN2CCOCC2)ccc1C(=O)Nc1nnc(C#CC2CC2)s1` [Compound 219] yielded an IC50 of under 0.25 nM.
With `COc1cnc(Cl)nc1-c1cc(-c2nnc(C)o2)ccc1C(=O)Nc1nnc(C#CC2CC2)s1` [Compound 402] the IC50 was 0.88 nM.
In the case of `COc1cnc(Cl)cc1-c1cnccc1C(=O)Nc1nnc(C#CC2CC23CC3)s1` (stereo not shown) [Compound 100], the IC50 is reported as under 0.25 nM.
For `COc1cnc(C(F)F)cc1-c1cc(-c2cccc(C)n2)ncc1C(=O)Nc1nnc(C#CC2CC2)s1` [Compound 422], the IC50 was 0.54 nM.
In the case of `COc1cnc(C(F)F)cc1-c1cc(N2CCC(n3ccnc3)CC2)ncc1C(=O)Nc1nnc(C#CC2CC2)s1` [Compound 125], the IC50 is reported as 21 nM.
Work on `COc1cnc(C(F)F)cc1-c1cc(C#CCN2CCOC[C@H]2C)ncc1C(=O)Nc1nnc(C#CC2CC2)s1` [Compound 189] yielded an IC50 of under 0.25 nM.
Work on `CNC(=O)Cn1cc(-c2cc(C(F)(F)F)cnc2OC)c(C(=O)Nc2nnc(C#CC3CC3)s2)cc1=O` [Compound 89] yielded an IC50 of 1.2 nM.
Work on `Cc1nnc(Cn2cc(-c3cc(C(F)F)ncc3C)c(C(=O)Nc3ncc(C#CC4CC4)s3)cc2=O)o1` [Compound 126] yielded an IC50 of under 0.25 nM.
In the case of `COc1cnc(Cl)cc1-c1cc(N2CCCC2=O)ccc1C(=O)Nc1nnc(C#CC2CC2)s1` [Compound 39], the IC50 is reported as 0.27 nM.
`COc1cnc(C(F)F)cc1-c1cc(OC[C@@H]2CCOC2)ncc1C(=O)Nc1nnc(C#CC2CC2)s1` [Compound 148] was tested, and the IC50 was 0.93 nM.
In the case of `COc1cnc(C(F)F)cc1-c1cc(C#CC2(n3cccn3)CC2)ncc1C(=O)Nc1nnc(C#CC2CC2)s1` [Compound 233], the IC50 is reported as under 0.25 nM.
`COc1cnc(C(F)F)cc1-c1cc(Cl)ncc1C(=O)Nc1nc(C#N)c(C#CC2CC2)s1` [Compound 259] gave an IC50 of 1.2 nM.
With `COc1cnc(C)cc1-c1cnccc1C(=O)Nc1nnc(C#CC2CC2)s1` [Compound 70] the IC50 was 2.5 nM.
In the case of `CNC(=O)Cn1cc(-c2cc(Cl)ncc2OC(F)F)c(C(=O)Nc2nnc(C#CC3CC3)s2)cc1=O` [Compound 77], the IC50 is reported as under 0.25 nM.
`COc1ccc(C(F)F)cc1-c1cnccc1C(=O)Nc1nnc(C#CC2CC23CC3)s1` (stereo not shown) [Compound 55] gave an IC50 of under 0.25 nM.
`COc1cnc(C(F)F)cc1-c1cc(N2CCN(C(C)=O)CC2)ccc1C(=O)Nc1nnc(C#CC2CC2)s1` [Compound 366] showed an IC50 of 3 nM.
For `COc1cnc(Cl)cc1-c1cc(C(N)=O)ncc1C(=O)Nc1nnc(C#CC2CC2)s1` [Compound 73], the IC50 was 0.42 nM.
With `COc1cnc(C(F)F)cc1-c1cc(-c2cc(C#N)n(C)n2)ncc1C(=O)Nc1nnc(C#CC2CC2)s1` [Compound 371] the IC50 was 8.1 nM.
Compound `COc1cnc(Cl)cc1-c1cc(C#CC2(O)CCS(=O)(=O)CC2)ccc1C(=O)Nc1nnc(C#CC2CC2)s1` [Compound 288] has an IC50 of under 0.25 nM.
`COc1cnc(C(F)F)cc1-c1cc(-n2ncc(OC)c(Cl)c2=O)ncc1C(=O)Nc1nnc(C#CC2CC2)s1` [Compound 452] gave an IC50 of under 0.25 nM.
In the case of `COc1cnc(Cl)cc1-c1cn2ncnc2cc1C(=O)Nc1nnc(C#CC2CC2)s1` [Compound 96], the IC50 is reported as 2.6 nM.
In the case of `Cc1nnc(Cn2cc(-c3cc(C(F)(F)F)ccc3Cl)c(C(=O)Nc3nnc(C#CC4CC4)s3)cc2=O)o1` [Compound 61], the IC50 is reported as under 0.25 nM.
`COc1ccc(C(F)(F)F)cc1-c1cn2ncnc2cc1C(=O)Nc1nnc(C#CC2CC2)s1` [Compound 345] was tested, and the IC50 was 3.7 nM.
`CNC(=O)Cn1cc(-c2cc(C(F)(F)F)ccc2OC)c(C(=O)Nc2nnc(C#CC3CC3)s2)cc1=O` [Compound 93] gave an IC50 of 0.32 nM.
`COc1cnc(C(F)F)cc1-c1cc(N2CCOCC2=O)ccc1C(=O)Nc1nnc(C#CC2CC2)s1` [Compound 108, N-(5-(cyclopropylethynyl)-1,3,4-thiadiazol-2-yl)-2-(2-(difluoromethyl)-5-methoxypyridin-4-yl)-4-(3-oxomorpholino)benzamide] gave an IC50 of under 0.25 nM.
`COc1cnc(C(F)F)cc1-c1cc(N2CCCCC2=O)ncc1C(=O)Nc1nnc(C#CC2CC2)s1` [Compound 192] gave an IC50 of 0.33 nM.
`COc1cnc(C(F)F)cc1-c1cc(CC(=O)N(C)C)ccc1C(=O)Nc1ncc(C#CC2CC2)s1` [Compound 215] was tested, and the IC50 was 0.31 nM.
Work on `COc1cnc(C(F)F)cc1-c1cc(CC(=O)N2CC(C)(O)C2)ccc1C(=O)Nc1ncc(C#CC2CC2)s1` [Compound 205] yielded an IC50 of 0.16 nM.
With `COc1cnc(C(F)F)cc1-c1cc(-n2ccncc2=O)ccc1C(=O)Nc1nnc(C#CC2CC2)s1` [Compound 163] the IC50 was under 0.25 nM.
Compound `COc1cnc(C(F)F)cc1-c1cc(C#CC2CCOCC2)ncc1C(=O)Nc1nnc(C#CC2CC2)s1` [Compound 268, N-(5-(cyclopropylethynyl)-1,3,4-thiadiazol-2-yl)-2′-(difluoromethyl)-5′-methoxy-6-((tetrahydro-2H-pyran-4-yl)ethynyl)-[4,4′-bipyridine]-3-carboxamide] has an IC50 of 0.28 nM.
Compound `COc1cnc(Cl)cc1-c1cn(C)c(=O)cc1C(=O)Nc1nnc(C#Cc2cc(C)[nH]n2)s1` [Compound 103] has an IC50 of 1.2 nM.
`COc1cnc(C(F)F)cc1-c1cc(CC(=O)N2CC(F)(F)C2)ncc1C(=O)Nc1nnc(C#CC2CC2)s1` [Compound 446] gave an IC50 of under 0.25 nM.
In the case of `COc1cnc(C(F)F)cc1-c1cnccc1C(=O)Nc1nnc(C#CC2CC2)s1` [Compound 31, N-(5-(cyclopropylethynyl)-1,3,4-thiadiazol-2-yl)-2′-(difluoromethyl)-5′-methoxy-[3,4′-bipyridine]-4-carboxamide], the IC50 is reported as 0.63 nM.
`COc1ccc(C(F)(F)F)cc1-c1cn(CC(=O)N(C)C)c(=O)cc1C(=O)Nc1nnc(C#Cc2cc(C)[nH]n2)s1` [Compound 81] was tested, and the IC50 was under 0.25 nM.
`COc1cnc(C(F)F)cc1-c1cc(-c2cnn(C3CCOCC3)c2)ccc1C(=O)Nc1nnc(C#CC2CC2)s1` [Compound 188] showed an IC50 of 1.9 nM.
`O=C(Nc1nnc(C#CC2CC2)s1)c1cc2ncnn2cc1-c1cc(Cl)ncc1OC(F)F` [Compound 50] was tested, and the IC50 was 2.4 nM.
With `COc1cnc(C(F)F)cc1-c1cc(N2CC(C)(C)N(C)CC2=O)ncc1C(=O)Nc1nnc(C#CC2CC2)s1` [Compound 471] the IC50 was 2.1 nM.
For `COc1cnc(C(F)F)cc1-c1cc(N2CC(C)(C)CC2=O)ncc1C(=O)Nc1nnc(C#CC2CC2)s1` [Compound 380], the IC50 was 11 nM.
Work on `COc1cnc(Cl)cc1-c1cn(CC(N)=O)c(=O)cc1C(=O)Nc1nnc(C#CC2CC23CC3)s1` (stereo not shown) [Compound 83] yielded an IC50 of under 0.25 nM.
Compound `COc1cnc(C(F)F)cc1-c1cc(N2CCCCC2=O)ccc1C(=O)Nc1nnc(C#CC2CC2)s1` [Compound 212] has an IC50 of under 0.25 nM.
`COc1cnc(C(F)F)cc1-c1cc(N2CCN3CCCC3C2=O)ncc1C(=O)Nc1nnc(C#CC2CC2)s1` (stereo not shown) [Compound 415] showed an IC50 of 0.25 nM.
Compound `COc1ccc(C(F)(F)F)cc1-c1cn(C)c(=O)cc1C(=O)Nc1nnc(C#CC2CC23CC3)s1` (stereo not shown) [Compound 60] has an IC50 of 1.1 nM.
`COc1ccc(C(F)(F)F)cc1-c1cnccc1C(=O)Nc1nnc(C#CC2CC2(C)C)s1` (stereo not shown) [Compound 306] was tested, and the IC50 was 0.56 nM.
In the case of `COc1cnc(C(F)F)cc1-c1cc(-c2cnccn2)ncc1C(=O)Nc1nnc(C#CC2CC2)s1` [Compound 172], the IC50 is reported as 1.5 nM.
For `CN(C)C(=O)Cn1cc(-c2cc(C(F)F)ccc2Cl)c(C(=O)Nc2nnc(C#CC3CC3)s2)cc1=O` [Compound 317], the IC50 was under 0.25 nM.
`Cn1cc(-c2cc(Cl)ncc2OC(F)F)c(C(=O)Nc2nnc(C#CC3CC34CC4)s2)cc1=O` (stereo not shown) [Compound 320] gave an IC50 of under 0.25 nM.
In the case of `COc1ccc(C(F)(F)F)cc1-c1cnccc1C(=O)Nc1nnc(C#Cc2cc(C)[nH]n2)s1` [Compound 27, 3-[2-methoxy-5-(trifluoromethyl)phenyl]-N-[5-[2-(5-methyl-1H-pyrazol-3-yl)ethynyl]-1,3,4-thiadiazol-2-yl]pyridine-4-carboxamide], the IC50 is reported as 0.26 nM.
With `COc1cnc(C(F)F)cc1-c1cc(-n2ccc(C)c(C)c2=O)ncc1C(=O)Nc1nnc(C#CC2CC2)s1` [Compound 467] the IC50 was under 0.25 nM.
Compound `COc1cnc(C(F)F)cc1-c1cc(N2CCN(C)C3(CC3)C2=O)ncc1C(=O)Nc1ncc(C#CC2CC2)s1` [Compound 465] has an IC50 of 0.27 nM.
`COc1cnc(Cl)cc1-c1cc(-c2n[nH]cc2C)ccc1C(=O)Nc1nnc(C#CC2CC2)s1` [Compound 298] showed an IC50 of 0.8 nM.
With `COc1cnc(C(F)F)cc1-c1cc(-c2ccn(C)n2)c(F)cc1C(=O)Nc1nnc(C#CC2CC2)s1` [Compound 457] the IC50 was 0.37 nM.
Compound `COc1cnc(C(F)F)cc1-c1cc(OC[C@H]2CCOC2)ncc1C(=O)Nc1nnc(C#CC2CC2)s1` [Compound 149] has an IC50 of 0.37 nM.
`[2H]C([2H])([2H])Oc1cnc(C(F)F)cc1-c1cc(-c2nnc(C)o2)ccc1C(=O)Nc1nnc(C#CC2CC2)s1` [Compound 406] showed an IC50 of 2.8 nM.
Work on `Cc1cnc(Cl)cc1-c1cnccc1C(=O)Nc1nnc(C#CC2CC2)s1` [Compound 299] yielded an IC50 of 0.6 nM.
`COc1cnc(C(F)F)cc1-c1cc(-n2ccc(C)c(F)c2=O)ncc1C(=O)Nc1nnc(C#CC2CC2)s1` [Compound 466] showed an IC50 of under 0.25 nM.
